Entries after “also recorded” stand apart in the source; their conditions may differ.
Tests used:
SRC kinase = molecular target: T1, SRC kinase (Homo sapiens, UniProt P12931); assay: Kinase inhibitor screening assay (Promega kinase selectivity profiling, ADP-Glo); assay type: biochemical; design: dose or concentration left out as unconfirmed; conditions: panel of 16 tyrosine kinases
T1 construct: purchased Promega
Protocol: The kinase selectivity profiling systems from Promega was used to check the inhibitory activity of the purified compound against the broad panel of Tyrosine kinases. The kinase selectivity assays were assembled in a 384-well plate using 1 μl of the purified compound ([…]), 2 μl of each kinase working stock and 2 μl of the corresponding ATP/Substrate working stock as per the manufacturer protocol and kinase activity was quantified using the ADP-Glo™ kinase assay from Promega. The reaction assembled with kinase and corresponding ATP/Substrate without the purified compound was used as a positive control.

MDA-MB-468 cells [1] = assay: MDA-MB-468 cell viability, CellTiter-Glo, 8 hrs, comparison with lapatinib; assay type: cell-based, human; conditions: MDA-MB-468, within 8 hrs of incubation
Protocol: (§1) MDA-MB-468 cells (ATCC #HTB-32) were seeded with a density of 5,000 cells per well in a 96 well white plate (Costar Cat #3917) in DMEM media supplemented with 10% FBS (assay medium). The plates were incubated at 37° C., 5% CO2 for 24 hr. E05 and Lapatinib was diluted in the assay medium and added to the respective wells of the assay plates. The plates were further incubated at 37° C., 5% CO2 for 8 hrs. After the incubation, the cell viability was assessed using CellTiter-Glo® and the plates were read for luminescence using Cytation 5 (Biotek). The relative luminescence unit (RLU) obtained was plotted against the concentration and EC50 values were estimated using Graphpad Prism 5 software.

[2] = Repeated dose 7-day dose range finding study, oral gavage; assay type: in vivo
Protocol: Repeated dose 7-day dose range finding study (DRF) of E05 through oral gavage was carried out in Wistar rats.

[3] = Pharmacokinetic study after single oral administration; assay type: in vivo; conditions: Sprague Dawley, rat, plasma, male rats
Protocol: A study to determine the pharmacokinetics of E05 after single oral (10 mg/kg) administration in male Sprague Dawley rats was carried out. […] The absolute oral bioavailability of Small molecule was 80% (FIG. 18).

[4] = system: colon cancer cell line HCT116; assay: Anti-proliferative activity in HCT116; assay type: cell-based
[5] = system: breast cancer cell line BT-474; assay: Anti-proliferative activity in BT-474; assay type: cell-based
[6] = Maximum tolerated dose study, oral gavage; assay type: in vivo; conditions: single oral gavage
Protocol: A maximum tolerated dose (MTD) study was carried out with E05. In MTD study, group of 3 male and 3 female rats were dosed at 175 (group 1), 550 (group 2), 1750 (group 3) and 2000 (group 4) mg/kg b. wt.

MDA-MB-468 = assay: Murine xenograft model of Triple-Negative Breast Cancer; assay type: in vivo, SCID mice; conditions: oral, twice daily
Protocol: Efficacy study of E05 and positive control (5-Fluorouracil) were carried out in a murine xenograft model of Triple-Negative Breast Cancer (MDA-MB-468). Dosing was done as per the Table. 3.
Female SCID (Severe Combined Immunodeficient) mice were used for this study.
Approximately 5×10^6 cells in 0.2 mL FBS free medium containing 50% of Matrigel was injected into sub-cutaneous tissue on right flank of each mouse. Treatment with E05 or with positive control was initiated when average tumor volume reaches ˜100 mm3. Tumor volume was measured periodically.

[7] = Repeated dose 7-day dose range finding study, intravenous bolus injection; assay type: in vivo; conditions: for Morbidity % / Morbidity No / Mortality % / Mortality No: i.v. bolus 7 days
Protocol: Repeated dose 7-day dose range finding study (DRF) of E05 through intravenous bolus injection was carried out in Wistar rats.

MDA-MB-468 cells [8] = assay: MDA-MB-468 cell viability, CellTiter-Glo, 24 hrs; assay type: cell-based, human; conditions: Homo sapiens, 24 hrs incubation
Protocol: MDA-MB-468 cells, isolated from a pleural effusion of a patient with metastatic adenocarcinoma of the breast, is a triple negative breast cancer (TNBC) cell line. The IC 50 value of E05 or lapatinib (Sigma) or the structural analogues of E05 were tested in this cell line.
as §1, with “Briefly, MDA-MB-468” for “MDA-MB-468”, “analogues were” for “Lapatinib was”, “plate.” for “plates.”, “24” for “8”, “software (FIG. 15 and Table 2).” for “software.”

[9] = Female G2 250 mg/kg b. wt., oral gavage 7 days
[10] = Female G3 500 mg/kg b. wt., oral gavage 7 days
[11] = Female G4 1000 mg/kg b. wt., oral gavage 7 days
[12] = Male G2 250 mg/kg b. wt., oral gavage 7 days
[13] = Male G3 500 mg/kg b. wt., oral gavage 7 days
[14] = Male G4 1000 mg/kg b. wt., oral gavage 7 days

T1 sequence (P12931 whole entry): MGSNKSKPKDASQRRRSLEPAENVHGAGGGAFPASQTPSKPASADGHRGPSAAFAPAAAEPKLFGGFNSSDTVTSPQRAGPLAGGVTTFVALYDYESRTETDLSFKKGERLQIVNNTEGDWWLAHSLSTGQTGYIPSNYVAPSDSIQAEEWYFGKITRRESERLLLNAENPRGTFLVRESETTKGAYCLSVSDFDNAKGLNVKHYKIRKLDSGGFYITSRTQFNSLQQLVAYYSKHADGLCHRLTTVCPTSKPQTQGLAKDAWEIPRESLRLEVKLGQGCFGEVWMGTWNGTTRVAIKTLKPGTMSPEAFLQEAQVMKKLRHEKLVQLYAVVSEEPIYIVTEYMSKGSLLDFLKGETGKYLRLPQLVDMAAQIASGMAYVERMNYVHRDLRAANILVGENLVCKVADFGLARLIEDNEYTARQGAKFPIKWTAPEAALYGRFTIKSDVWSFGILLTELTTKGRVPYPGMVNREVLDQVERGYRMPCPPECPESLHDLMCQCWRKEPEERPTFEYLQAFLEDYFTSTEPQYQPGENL

## O=C(O)CCc1ccc(O)c(O)c1 [E05, 3-(3,4-Dihydroxyphenyl) propanoic acid]
SRC kinase
  SRC kinase activity: inhibited
MDA-MB-468 cells [1]
  inhibition compared with lapatinib: stronger inhibition in compare to lapatinib
[2]; [9]
  Morbidity %: 0%
  Morbidity No: 0
  Mortality %: 0%
  Mortality No: 0
[2]; [10]
  Morbidity %: 0%
  Morbidity No: 0
  Mortality %: 0%
  Mortality No: 0
[2]; [11]
  Morbidity %: 0%
  Morbidity No: 0
  Mortality %: 0%
  Mortality No: 0
[2]; [12]
  Morbidity %: 0%
  Morbidity No: 0
  Mortality %: 0%
  Mortality No: 0
[2]; [13]
  Morbidity %: 0%
  Morbidity No: 0
  Mortality %: 0%
  Mortality No: 0
[2]; [14]
  Morbidity %: 0%
  Morbidity No: 0
  Mortality %: 0%
  Mortality No: 0
[2]; male and female rats, oral gavage 7 days
  food consumption, organ weight and relative organ weight: No treatment-related changes
[2]; rat, in vivo, po
  mortality, morbidity or clinical sign: no mortality, morbidity or clinical sign
[2]; up to 1000 mg/kg b. wt., orally through gavage, 7 consecutive days
  toxicity: did not produce any toxicity
[3]; oral 10 mg/kg, read-out: absolute oral bioavailability
  bioavailability: 80%
[3]; single oral gavage 10 mg/kg
  AUC(0-t): 151 ng·h/mL
  Cmax: 306 ng/mL
[3]; single oral gavage 10 mg/kg, read-out: mean time to reach peak plasma concentration (Tmax)
  Tmax: 15 min
[4]
  inhibition of growth: dose dependent response; also recorded: dose dependent inhibition of growth
[5]
  inhibition of growth: dose dependent response; also recorded: dose dependent inhibition of growth
[6]; Female G1 175 mg/kg b. wt.
  Morbidity on Experimental Day 1: 0
  Morbidity on Experimental Day 2: 0
  Morbidity on Experimental Day 3: 0
  Morbidity on Experimental Day 4: 0
  Mortality on Experimental Day 1: 0
  Mortality on Experimental Day 2: 0
  Mortality on Experimental Day 3: 0
  Mortality on Experimental Day 4: 0
[6]; Female G2 550 mg/kg b. wt.
  Morbidity on Experimental Day 1: 0
  Morbidity on Experimental Day 2: 0
  Morbidity on Experimental Day 3: 0
  Morbidity on Experimental Day 4: 0
  Mortality on Experimental Day 1: 0
  Mortality on Experimental Day 2: 0
  Mortality on Experimental Day 3: 0
  Mortality on Experimental Day 4: 0
[6]; Female G3 1750 mg/kg b. wt.
  Morbidity on Experimental Day 1: 0
  Morbidity on Experimental Day 2: 0
  Morbidity on Experimental Day 3: 0
  Morbidity on Experimental Day 4: 0
  Mortality on Experimental Day 1: 0
  Mortality on Experimental Day 2: 0
  Mortality on Experimental Day 3: 0
  Mortality on Experimental Day 4: 0
[6]; Female G4 2000 mg/kg b. wt.
  Morbidity on Experimental Day 1: 0
  Morbidity on Experimental Day 2: 0
  Morbidity on Experimental Day 3: 0
  Morbidity on Experimental Day 4: 0
  Mortality on Experimental Day 1: 0
  Mortality on Experimental Day 2: 0
  Mortality on Experimental Day 3: 0
  Mortality on Experimental Day 4: 0
[6]; Male G1 175 mg/kg b. wt.
  Morbidity on Experimental Day 1: 0
  Morbidity on Experimental Day 2: 0
  Morbidity on Experimental Day 3: 0
  Morbidity on Experimental Day 4: 0
  Mortality on Experimental Day 1: 0
  Mortality on Experimental Day 2: 0
  Mortality on Experimental Day 3: 0
  Mortality on Experimental Day 4: 0
[6]; Male G2 550 mg/kg b. wt.
  Morbidity on Experimental Day 1: 0
  Morbidity on Experimental Day 2: 0
  Morbidity on Experimental Day 3: 0
  Morbidity on Experimental Day 4: 0
  Mortality on Experimental Day 1: 0
  Mortality on Experimental Day 2: 0
  Mortality on Experimental Day 3: 0
  Mortality on Experimental Day 4: 0
[6]; Male G3 1750 mg/kg b. wt.
  Morbidity on Experimental Day 1: 0
  Morbidity on Experimental Day 2: 0
  Morbidity on Experimental Day 3: 0
  Morbidity on Experimental Day 4: 0
  Mortality on Experimental Day 1: 0
  Mortality on Experimental Day 2: 0
  Mortality on Experimental Day 3: 0
  Mortality on Experimental Day 4: 0
[6]; Male G4 2000 mg/kg b. wt.
  Morbidity on Experimental Day 1: 0
  Morbidity on Experimental Day 2: 0
  Morbidity on Experimental Day 3: 0
  Morbidity on Experimental Day 4: 0
  Mortality on Experimental Day 1: 0
  Mortality on Experimental Day 2: 0
  Mortality on Experimental Day 3: 0
  Mortality on Experimental Day 4: 0
MDA-MB-468; 6 weeks
  efficacy in the murine xenograft model of TNBC: statistically significant efficacy
MDA-MB-468; 6 weeks, 75, 200, 500 mg/kg
  tumor volumes: Dose dependent decrease in tumor volumes
[7]; Female G2 125 mg/kg b. wt
  Morbidity %: 0%
  Morbidity No: 0
  Mortality %: 0%
  Mortality No: 0
[7]; Female G3 250 mg/kg b. wt
  Morbidity %: 0%
  Morbidity No: 0
  Mortality %: 0%
  Mortality No: 0
[7]; Female G4 500 mg/kg b. wt
  Morbidity %: 0%
  Morbidity No: 0
  Mortality %: 0%
  Mortality No: 0
[7]; Male G2 125 mg/kg b. wt
  Morbidity %: 0%
  Morbidity No: 0
  Mortality %: 0%
  Mortality No: 0
[7]; Male G3 250 mg/kg b. wt
  Morbidity %: 0%
  Morbidity No: 0
  Mortality %: 0%
  Mortality No: 0
[7]; Male G4 500 mg/kg b. wt
  Morbidity %: 0%
  Morbidity No: 0
  Mortality %: 0%
  Mortality No: 0
[7]; up to 500 mg/kg b. wt., daily intravenous bolus, 7 consecutive days
  systemic toxicity: did not produce any systemic toxicity
MDA-MB-468 cells [8]
  EC50: 86.1 µM

## O=C(O)/C=C/c1ccc(O)c(O)c1 [E05_A]
MDA-MB-468 cells [8]
  EC50: 122 µM

— patent US20220370385A1, “COMPOSITIONS FOR USE IN INHIBITING SRC KINASE AND TREATING AND PREVENTING ASSOCIATED DISORDERS” (Enzene Biosciences Ltd., priority 2019, published 2022)
